In US20260223850A1, “SUBSTITUTED PYRROLIDONE COMPOUND, PREPARATION METHOD THEREFOR, COMPOSITION AND APPLICATION THEREOF” (QINGDAO KINGAGROOT CHEMICAL COMPOUND CO., LTD., priority 2023, published 2026):

Columns and labels:
weeds [1] = assay: Activity assay of compositions, soil sealing treatment (S); format: in vivo; details: treatment S, A 15 g a.i./ha
Source text: (§1) The required active ingredient B was purchased from a reagent company or a technical material manufacturer or synthesized by a conventional method. The technical materials were all dissolved with acetone solvents and diluted with aqueous solution of 0.1% Tween® 80 emulsifier, which should be used immediately after dilution.
The test soil was quantitatively filled to ¾ of a pot, and then watered from the bottom of the pot to completely wet the soil to saturation. The seeds of the test weeds were accelerated to Just germinate, and then evenly and quantitatively broadcasted on the soil surface, covered with 0.5-1 cm soil according to the sizes of the seeds, and ready for use 72 hours after broadcasting.
Each treatment was repeated 4 times. Four pots were treated each time with 20 weed seeds per pot.
The seeds were planted in a 20 cm*30 cm square box. Water was added to 2-3 cm deep after sowing, then injected with the drug agent using a syringe, stirred evenly, and left to stand for 2 days to dry naturally. The soil was kept moist afterwards.
(§2) A method for investigating absolute numbers was employed. The whole seedlings of the survival weeds were cut along the soil surface with a blade, and the fresh weight of the weeds was weighed by an analytical balance. For dead weeds, the fresh weight thereof was considered zero.
(§3) The investigation was performed 21 days after the treatment for once in total.
(§4) The theoretical fresh weight inhibition rate of a mixed combination of each treatment was calculated by the Gowing method (E0═X+Y−X*Y/100), then compared with the measured inhibition rate (E) to evaluate the type of the combined action of the combination of the two on weeds. The combined action was a synergistic effect when E−E0 >10%; an antagonistic effect when E−E0<−10%; an additional effect when −10%≤E−E0≤10%. An optimal ratio was determined according to factors such as actual control effects, characteristics of herbicides, balance of the formulation, etc.

Echinochloa phyllopogon = assay: Seedling stage sealing experiment for water-seeding; format: in vivo; details: 120 g a.i./ha, 15 days, fresh weight control rate
How it was run: (§5)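 Read-out: 0–9 damage level from fresh-weight control rate (9 = completely dead, 1 = under 10%, 0 = no effect), averaged over triplicates, taken 15 days after spraying. Doses were 120, 60, 30 and 15 g a.i./ha, acetone/water solution, spray tower.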

Echinochloa crusgalli = assay: as above; format: in vivo; details: 120 g a.i./ha, 15 days, fresh weight control rate
weeds [2] = assay: Activity assay of compositions, post-emergence spray treatment of stems and leaves (F); format: in vivo; details: treatment F, A 30 g a.i./ha, 21 days after treatment
Description: as §1
Weeds were cultivated by the pot culture method. […] Weed seeds with plump and uniform grains were selected, soaked in lukewarm water at 25° C. for 6 hours, and accelerated to germinate in a 28° C. biochemical incubator (in darkness). The weed seeds that had just germinated were evenly placed on the surface of the soil and then covered with 0.5-1 cm soil according to the sizes of seeds.
The weeds were cultured in a controllable sunlight greenhouse at 20-30° C., in natural light and with relative humidity of 57%-72%.
Each treatment was repeated 4 times. Three pots with 20 weed seeds sowed per pot were treated each time.
The drug was applied once in total in the experiment. When at 1.5-2 leaf stage, the weeds were thinned out to maintain 10 strains per pot. Thirty strains were kept in each treatment and then continued to be cultured until the 3-4 leaf stage for further treatment.
The well-cultured test materials were evenly placed on a 0.5 m^2 platform and foliage-sprayed by the 3WP-2000-type walking spray tower at a dosage of […] and a spray pressure of 0.3 MPa. After all the drug solution was sprayed, the air valve was closed. And 30 seconds later, the door of the spray tower was opened, and the nutritional bowl was taken out. Next, the air valve was opened, and the spray tube was cleaned by spraying 50 mL of water. The test materials were transferred to and routinely cultured in a greenhouse after the treatment.
as §2, §3
as §4, with “etc. In the formula, X represents the fresh weight inhibition rate of the active ingredient A in a dosage of P; Y represents the fresh weight inhibition rate of the active ingredient B in a dosage of Q. The statistical results are shown in Table 6.” for “etc.”

Apple ring rot = assay: Fungicidal activity assay, petri dish method; format: cell-based; details: 25° C., after 4 days; for Apple ring rot/% (mycelium growth inhibition rate): 400 ppm
Description: (§6) Petri dish method: The drug agent was dissolved with acetone, diluted with sterile water, and set to different levels of mass concentrations according to its activity. Under aseptic operation conditions, the pre-melted sterilized medium was quantitatively added into sterilized flasks according to the test treatment. The drug solutions were quantitatively aspirated in order from low to high concentrations, added into the above-mentioned flasks, and shaken well, respectively. Next, equal amounts of the solution were poured into 3 petri dishes with a diameter of 6 cm to prepare drug-containing plates with corresponding concentrations. In the test, a treatment without drugs was set up as the blank control and each treatment was repeated 3 times. A fungus cake was cut out from the edge of the colony of the cultured pathogens using a sterile hole puncher with a diameter of 3 mm under sterile conditions. The fungus cake was inoculated into the center of a drug-containing plate using an inoculator, with the mycelia facing up, covered with a plate cover, and cultured in an incubator at 25° C. The growth of pathogen mycelia was investigated according to the fungal growth in the blank control petri dishes after 4 days. The diameters of the colonies were measured with a caliper in millimeters (mm). Each colony was vertically measured for diameters once each by the cross method and then averaged. Based on the investigation results, the mycelium growth inhibition rate of each treatment concentration on the test target fungi was calculated in accordance with Equation (1) and (2). The unit was percentage (%).
(§7) [formula] • wherein: D—Increase of colony diameter; D1—Diameter of colony; D2—Diameter of fungus cake.
(§8) [formula] • wherein: I—Mycelium growth inhibition rate; D0—Increase of colony diameter of blank control; Dt—Increase of colony diameter of drug treatment.

Rice sheath blight = assay: Fungicidal activity assay, petri dish method; format: cell-based; details: 25° C., after 4 days; for Rice sheath blight/% (mycelium growth inhibition rate): 400 ppm
Description: as §6, §7, §8

Leptochloa chinensis = assay: Seedling stage sealing experiment for water-seeding; format: in vivo; details: 120 g a.i./ha, 15 days, fresh weight control rate
How it was run: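 Seeds sown in soil-filled bowls kept moist in water-filled boxes; compound in acetone diluted with water and spray-applied at 120, 60, 30 and 15 g a.i./ha, triplicate. After 15 days in greenhouse, fresh-weight growth control scored on a 0–9 scale (9 = dead, 0 = no effect), averaged.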

Huaidao (rice cultivar) = assay: Seedling stage sealing experiment for water-seeding (crop safety); format: in vivo; details: 120 g a.i./ha, 15 days, fresh weight control rate; for Huaidao (rice cultivar) plant damage level: seedling stage sealing
How it was run: as §5

Tomato gray mold = assay: Fungicidal activity assay, petri dish method; format: cell-based; details: 25° C., after 4 days
Description: as §6, §7, §8

Mythimna separata = assay: Insecticidal activity assay, spraying method; format: in vivo; details: 500 ppm, 3rd instar, spray, 48 h after drug application
Description: (§9) Spraying method: the technical material was weighed and dissolved with acetone, and the drug liquid was diluted with distilled water to different concentrations. The 2nd instar Spodoptera frugiperda test insects or the 3rd instar Mythimna separata test insects reared indoors with consistent physiological conditions were selected. Ten test insects were picked into each petri dish. Two 2 cm-long corn leaves were placed in the petri dish and sprayed using a spray tower. Each dosage was repeated 3 times, with acetone of the corresponding concentration as a control. After drug application, the insects were transferred to and reared in a condition where the temperature was 25° C. and the humidity was 60%. The results were investigated 48 h after drug application and the death number per treatment was collected, respectively. The mortality was calculated in accordance with the following equation: Mortality (%)=(Number of dead insects/Number of test insects)×100.

Spodoptera frugiperda = assay: Insecticidal activity assay, spraying method; format: in vivo; details: 500 ppm, 2nd instar, spray, 48 h after drug application
Description: as §9

[3] = spray, seedling stage sealing for water-seeding

Compound | Echinochloa phyllopogon activity level (growth control rate) (Echinochloa phyllopogon; seedling stage sealing) | Echinochloa crusgalli activity level (growth control rate) (Echinochloa crusgalli; seedling stage sealing) | Huaidao (rice cultivar) plant damage level (Huaidao (rice cultivar)) | Apple ring rot/% (mycelium growth inhibition rate) (Apple ring rot) [%] | Rice sheath blight/% (mycelium growth inhibition rate) (Rice sheath blight) [%] | Tomato gray mold/% (mycelium growth inhibition rate) (Tomato gray mold; 400 ppm) [%] | also measured
Cc1cc(C)cc([C@H]2CN(C)C(=O)[C@@H]2C(=O)Nc2cnn(C)c2Cl)c1 [117′] | 7 (Level 7: growth control rate greater than or equal to 80% and less than 90%) | 9 | – | – | – | – | Control effect of A applied alone in a corresponding dose (%) (weeds [1]; Alisma plantago-aquatica, 21 days after treatment): 29.6%; Control effect of A applied alone in a corresponding dose (%) (weeds [1]; Paspalum distichum, 21 days after treatment): 45.7%; Control effect of A applied alone in a corresponding dose (%) (weeds [1]; Rotala indica, fresh weight inhibition 21 days after treatment): 37.6%; Control effect of A applied alone in a corresponding dose (%) (weeds [2]; Alisma plantago-aquatica): 24.8%; Control effect of A applied alone in a corresponding dose (%) (weeds [2]; Paspalum distichum): 42.6%; inhibition at 400 ppm (Apple ring rot; 96 h, read-out: Apple ring rot/% (mycelium growth inhibition rate)): 55%; inhibition at 400 ppm (Rice sheath blight; 96 h, read-out: Rice sheath blight/% (mycelium growth inhibition rate)): 66%; Leptochloa chinensis activity level (growth control rate) (Leptochloa chinensis): 9
CN1C[C@H](c2ccc(C3CC3)cc2)[C@@H](C(=O)Nc2cnn(C)c2Cl)C1=O [259′] | – | 5 (Level 5: growth control rate greater than or equal to 50% and less than 70%) | 0 | 51 | 59 | 80 | –
C=CCn1ncc(NC(=O)[C@H]2C(=O)N(C)C[C@@H]2c2cc(C)cc(C)c2)c1Cl [270′] | 6 (Level 6: growth control rate greater than or equal to 70% and less than 80%) | – | 0 | – | 61 | 51 | Mythimna separata/% (mortality) (Mythimna separata): 75%; Spodoptera frugiperda/% (mortality) (Spodoptera frugiperda): 55%
CN1C[C@H](c2cc3ccccc3o2)[C@@H](C(=O)Nc2cnn(C)c2Cl)C1=O [356′] | – | 5 (Level 5: growth control rate greater than or equal to 50% and less than 70%) | – | 83 | – | 57 | –
CN1C[C@H](c2ccc3c(c2)OC(F)(F)O3)[C@@H](C(=O)Nc2cnn(C)c2Cl)C1=O [357′] | – | – | – | 65 | 50 | 80 | –
CCn1ncc(NC(=O)[C@H]2C(=O)N(C)C[C@@H]2c2cc(C)cc(C)c2)c1Cl [418′] | 9 | 9 | – | – | – | – | Tomato gray mold/% (mycelium growth inhibition rate) (Tomato gray mold; 500 ppm): 96%
C#CCn1ncc(NC(=O)[C@H]2C(=O)N(C)C[C@@H]2c2cc(C)cc(C)c2)c1Cl [420′] | 9 | 9 | 0 | – | – | – | Mythimna separata/% (mortality) (Mythimna separata): 90%; Spodoptera frugiperda/% (mortality) (Spodoptera frugiperda): 75%
Cc1cc(C)cc([C@H]2CN(C)C(=O)[C@@H]2C(=O)Nc2cnn(C)c2Br)c1 [425′] | 9 | 9 | 0 | 55 | 56 | 68 | –
Cc1cc(Cl)cc([C@H]2CN(C)C(=O)[C@@H]2C(=O)Nc2cnn(C)c2Cl)c1 [504′] | – | – | – | 80 | 83 | – | Echinochloa phyllopogon activity level (growth control rate) (Echinochloa phyllopogon; [3]): 9; Echinochloa crusgalli activity level (growth control rate) (Echinochloa crusgalli; [3]): 9; Huaidao (rice cultivar) plant damage level (growth control rate) (Huaidao (rice cultivar); [3]): 0
